This is an account of results in patent publication US20250101062A1, “ANTIMICROBIAL PEPTIDES” (Board of Regents of the University of Nebraska, priority 2023, published 2025).

One test has as its system P. aeruginosa E411-17. The test can be described thus: microbe, parasite or virus in culture. Conditions: for MIC: read-out: Antimicrobial activity (MIC). The class given is cell-based, Pseudomonas aeruginosa. An outline of the steps:
(§1)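 Broth microdilution with twofold peptide dilutions, using exponential-phase bacteria at about 10^5 CFU/mL in MHB, incubated overnight at 37 °C and read at OD600. MIC, reported as a range, is the peptide concentration with no growth. Some tests used diluted MHB/TSB/LB, adjusted pH, or added NaCl or human serum.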

The subject of the next test is S. aureus USA300 LAC. Nature of the test: microbe, parasite or virus in culture. In kind it is cell-based, Staphylococcus aureus. An outline of the steps: as §1
In the next test the test system is MRSA USA300. The test can be described thus: Membrane permeabilization (propidium iodide). The class given is cell-based, Staphylococcus aureus. The procedure:
The peptide ladder was prepared as described for the antibacterial assay with 10 μL of solution in a black COSTAR® 96-well plate. PI (MP Biomedicals, Solon, OH) was prepared in the dark and dissolved in dimethylsulfoxide (Thermo Fisher Scientific, NY) to 20 mM. This PI stock solution was further diluted to 1 mM with water, and 2 μL of 1 mM PI was added to each well. Exponential-phase MRSA USA300 was diluted to OD600 0.11 with TSB, and 88 μL was added to each well. The plate was incubated at 37° C. with continuous shaking in a FLUOstar® Omega (BMG LABTECH, NC) microplate reader. The sample was read every 5 minutes for 24 cycles with excitation and emission wavelengths of 584 and 620 nm, respectively.
Bacterial membrane permeation was conducted (Yeaman, et al. (1998) J. Clin. Invest., 101(1):178-87). In brief, the peptide ladder was prepared as described for the antibacterial assay with 10 μL in a black COSTAR 96-well plate. Propidium iodide (PI) (MP Biomedicals, Solon, OH) was prepared in the dark and dissolved in DMSO (Thermo Fisher Scientific, NY) to 20 mM. This PI stock solution was further diluted to 1 mM with water and 2 μL of 1 mM PI was added to each well. Exponential phase MRSA USA300 or P. aeruginosa E411-17 was diluted to OD600 0.11 with tryptic soy broth (TSB) and 88 μL was added to each well. The plate was incubated at 37° C. with continuous shaking in a FLUOstar® Omega (BMG LABTECH, NC) microplate reader. The sample was read every 5 minutes for 24 cycles with excitation and emission wavelengths at 584 nm and 620 nm, respectively.

≈ marks a conversion by molar mass, not a printed value. Read-outs that look alike come from different tables or passages of the source. Where no end group is shown, it is not given here. Where only a bound is given, the exact number is not on record here.

RRWWRWWR-NH2 [W543]: the “Activity (MIC) P. aeruginosa” value with P. aeruginosa E411-17 (E411-17) amounted to 8 µM. The “change of MIC / activity” value in the test on S. aureus USA300 LAC (MRSA in MHB, 10% human serum) is given as “eightfold”. Further, in the test on S. aureus USA300 LAC (MRSA in MHB, addition of 150 mM NaCl), the “effect on MIC” value is “did not alter the MIC”. Further, the “increase of MIC” value with S. aureus USA300 LAC (MRSA in MHB, decrease of pH from 7.2 to 6.3) was “twofold”. Also, in the test on S. aureus USA300 LAC (USA300), the “Activity (MIC) S. aureus” value is 4 to 8 µM and the “Antimicrobial activity (MIC)” value is 64 µM. For the same compound, in the test on S. aureus USA300 LAC (USA300, pH 6.3), the “Antimicrobial activity (MIC)” value stood at 16 µM. The “concentration with no growth” value in the test with S. aureus USA300 LAC (without protease) came out at 8 µM. In addition, in the test with MRSA USA300 (Example 1, 1×MIC), the membrane permeabilization result is reported as “clear fluorescence increase”.

As for `CC[C@H](C)[C@H](NC(=O)[C@H](CCCCN)NC(=O)[C@H](CCC(=O)O)NC(=O)[C@H](CCCCN)NC(=O)[C@H](CO)NC(=O)[C@H](CCCCN)NC(=O)[C@H](CCCNC(=N)N)NC(=O)[C@H](Cc1ccccc1)NC(=O)[C@H](Cc1ccccc1)NC(=O)[C@H](CC(=O)O)NC(=O)CNC(=O)[C@H](CC(C)C)NC(=O)[C@@H](N)CC(C)C)C(=O)NCC(=O)N[C@@H](CCCCN)C(=O)N[C@@H](CCC(=O)O)C(=O)N[C@@H](Cc1ccccc1)C(=O)N[C@@H](CCCCN)C(=O)N[C@@H](CCCNC(=N)N)C(=O)N[C@H](C(=O)N[C@H](C(=O)N[C@@H](CCC(N)=O)C(=O)N[C@@H](CCCNC(=N)N)C(=O)N[C@H](C(=O)N[C@@H](CCCCN)C(=O)N[C@@H](CC(=O)O)C(=O)N[C@@H](Cc1ccccc1)C(=O)N[C@@H](CC(C)C)C(=O)N[C@@H](CCCNC(=N)N)C(=O)N[C@@H](CC(N)=O)C(=O)N[C@@H](CC(C)C)C(=O)N[C@H](C(=O)N1CCC[C@H]1C(=O)N[C@@H](CCCNC(=N)N)C(=O)N[C@H](C(=O)N[C@@H](CCC(=O)O)C(=O)N[C@@H](CO)C(=O)O)[C@@H](C)O)C(C)C)[C@@H](C)CC)C(C)C)[C@@H](C)CC` [LL-37], the MIC is at most 4 µM in the test on S. aureus USA300 LAC (DMEM, read-out: Antimicrobial activity (MIC)); above 32 µM with S. aureus USA300 LAC (Human serum 5%, read-out: Antimicrobial activity (MIC)); above 32 µM in the test with S. aureus USA300 LAC (Human serum 10%, read-out: Antimicrobial activity (MIC)); above 32 µM with S. aureus USA300 LAC (MHB, Table 8, read-out: Antimicrobial activity (MIC) S. aureus USA300); above 32 µM in the test on S. aureus USA300 LAC (NaCl (150 mM), read-out: Antimicrobial activity (MIC)); at most 4 µM with S. aureus USA300 LAC (RPMI 1640, read-out: Antimicrobial activity (MIC)). For the same compound, the MIC in the test on S. aureus USA300 LAC (pH 6.21, read-out: Antimicrobial activity (MIC)) is reported as above 32 µM; in the test with S. aureus USA300 LAC (pH 7.22, read-out: Antimicrobial activity (MIC)) it was above 32 µM. Also, the “Antimicrobial activity (MIC)” value was above 32 µM in the test with S. aureus USA300 LAC (LB 12.5%); above 32 µM with S. aureus USA300 LAC (LB 25%); above 32 µM with S. aureus USA300 LAC (LB 50%); above 32 µM in the test on S. aureus USA300 LAC (LB 100%); 32 µM in the test on S. aureus USA300 LAC (MHB 50%); “did not display any activity” in the test on S. aureus USA300 LAC (MHB 100%). For the same compound, the “Antimicrobial activity (MIC)” value with S. aureus USA300 LAC (TSB 12.5%), in the test with S. aureus USA300 LAC (TSB 25%), with S. aureus USA300 LAC (TSB 50%) and with S. aureus USA300 LAC (TSB 100%) was above 32 µM throughout. In addition, in the test on MRSA USA300 (Example 2, TSB, 1-32 μM), the membrane permeabilization result is “failed to do so”.

On to `CCCCCCCCCC(=O)N[C@@H](Cc1c[nH]c2ccccc12)C(=O)N[C@H](CC(N)=O)C(=O)N[C@@H](CC(=O)O)C(=O)N[C@@H]1C(=O)NCC(=O)N[C@@H](CCCN)C(=O)N[C@@H](CC(=O)O)C(=O)N[C@H](C)C(=O)N[C@@H](CC(=O)O)C(=O)NCC(=O)N[C@H](CO)C(=O)N[C@@H]([C@H](C)CC(=O)O)C(=O)N[C@@H](CC(=O)c2ccccc2N)C(=O)O[C@@H]1C` [Daptomycin], for which the MIC in the test with P. aeruginosa E411-17 (Human serum 5%) is above 8 µM; with P. aeruginosa E411-17 (Human serum 10%) it was above 8 µM; in the test on P. aeruginosa E411-17 (Pseudomonas aeruginosa, E41117, pH 6.21) it was above 8 µM; with P. aeruginosa E411-17 (Pseudomonas aeruginosa, E41117, pH 7.22) it was above 8 µM; in the test with P. aeruginosa E411-17 (Pseudomonas aeruginosa, E41117, pH 8.13) it was above 8 µM; with P. aeruginosa E411-17 (Pseudomonas aeruginosa, E41117, NaCl (150 mM)), above 8 µM. The MIC was 1 µM (≈ 1.62 µg/mL) in the test with S. aureus USA300 LAC (Staphylococcus aureus, MRSA / USA300, MRSA in MHB, 10% serum, read-out: Antimicrobial activity (MIC)); 1 µM (≈ 1.62 µg/mL) in the test on S. aureus USA300 LAC (Staphylococcus aureus, MRSA / USA300, MRSA in MHB, 20% serum, read-out: Antimicrobial activity (MIC)); 1 µM (≈ 1.62 µg/mL) in the test with S. aureus USA300 LAC (Staphylococcus aureus, MRSA / USA300, MRSA in MHB, NaCl (150 mM), read-out: Antimicrobial activity (MIC)); 1 µM (≈ 1.62 µg/mL) with S. aureus USA300 LAC (Staphylococcus aureus, MRSA / USA300, pH 6.3, MRSA in MHB, pH 6.3, read-out: Antimicrobial activity (MIC)); 1 µM (≈ 1.62 µg/mL) in the test with S. aureus USA300 LAC (Staphylococcus aureus, MRSA / USA300, pH 7.2, MRSA in MHB, pH 7.2, read-out: Antimicrobial activity (MIC)); 0.5 to 1 µM (≈ 0.81 to 1.62 µg/mL) with S. aureus USA300 LAC (Staphylococcus aureus, USA300, Human serum 5%, read-out: Antimicrobial activity (MIC)). Moreover, the MIC in the test with S. aureus USA300 LAC (Staphylococcus aureus, USA300, Human serum 10%, read-out: Antimicrobial activity (MIC)) was 0.5 to 1 µM (≈ 0.81 to 1.62 µg/mL); in the test on S. aureus USA300 LAC (Staphylococcus aureus, USA300, MHB, Table 8, read-out: Antimicrobial activity (MIC) S. aureus USA300), 0.5 to 1 µM (≈ 0.81 to 1.62 µg/mL); in the test on S. aureus USA300 LAC (Staphylococcus aureus, USA300, NaCl (150 mM), read-out: Antimicrobial activity (MIC)), 0.5 µM (≈ 0.81 µg/mL); with S. aureus USA300 LAC (Staphylococcus aureus, USA300, pH 6.21, pH 6.21, read-out: Antimicrobial activity (MIC)), 0.5 to 1 µM (≈ 0.81 to 1.62 µg/mL); in the test with S. aureus USA300 LAC (Staphylococcus aureus, USA300, pH 7.22, pH 7.22, read-out: Antimicrobial activity (MIC)), 0.5 µM (≈ 0.81 µg/mL); in the test on S. aureus USA300 LAC (Staphylococcus aureus, USA300, pH 8.13, pH 8.13, read-out: Antimicrobial activity (MIC)), 0.5 µM (≈ 0.81 µg/mL). In addition, in the test with MRSA USA300 (Example 1, 1×MIC), the membrane permeabilization entry was “membrane permeabilization after a delay”.
